Values after ≈ are worked out from the molar mass of the structure shown.
Tests used:
[1] = system: Mycolicibacterium smegmatis; test: Antitubercular activity against Mycobacterium smegmatis mc2155 ATCC 700084 cultured in GAST-Fe media incubated for 24 hrs by resazurin microtiter assay; type: functional
[2] = system: Mycolicibacterium smegmatis; test: Antitubercular activity against Mycobacterium smegmatis mc2155 ATCC 700084 cultured in GAST media incubated for 24 hrs by resazurin microtiter assay; type: functional
[3] = system: Mycobacterium tuberculosis; test: microbe, parasite or virus in culture; settings: H37Rv ATCC 27294, 192 h
[4] = system: Mycobacterium tuberculosis; test: microbe, parasite or virus in culture; settings: H37Rv ATCC 27294, 192 h; remark: listed apart in the source

Structure (SMILES)	MIC90 [1] [µg/mL]	MIC90 [2] [µg/mL]	MIC90 [3] [µg/mL]	MIC90 [4] [µg/mL]
CC(=O)N1N=C(c2ccccc2O)CC1c1cccc(Cl)c1 (stereo not given)	128 (≈ 407 µM)	128 (≈ 407 µM)	256 (≈ 813 µM)	256 (≈ 813 µM)
CC(=O)N1N=C(c2ccccc2O)CC1c1ccc(F)cc1 (stereo not given)	128 (≈ 429 µM)	128 (≈ 429 µM)	256 (≈ 858 µM)	128 (≈ 429 µM)
Oc1ccccc1C1=NNC(c2ccc(F)cc2)C1 (stereo not given)	64 (≈ 250 µM)	8 (≈ 31.2 µM)	128 (≈ 499 µM)	16 (≈ 62.4 µM)
COc1cccc(C2CC(c3ccccc3O)=NN2C(C)=O)c1 (stereo not given)	256 (≈ 825 µM)	> 256	> 256	> 256
CC(=O)N1N=C(c2ccccc2O)CC1c1ccc(Cl)cc1 (stereo not given)	256 (≈ 813 µM)	> 256	> 256	> 256
NNC(=O)c1ccncc1 [ISONIAZID]	2 (≈ 14.6 µM)	2 (≈ 14.6 µM)	0.005 (≈ 0.0365 µM)	0.03 (≈ 0.219 µM)
NC(=S)N1N=C(c2ccccc2O)CC1c1ccccc1Cl (stereo not given)	256 (≈ 771 µM)	256 (≈ 771 µM)	16 (≈ 48.2 µM)	8 (≈ 24.1 µM)
COc1ccc(C2CC(c3ccccc3O)=NN2C(N)=S)cc1O (stereo not given)	128 (≈ 373 µM)	128 (≈ 373 µM)	16 (≈ 46.6 µM)	8 (≈ 23.3 µM)
Oc1ccccc1C1=NNC(c2ccccc2F)C1 (stereo not given)	64 (≈ 250 µM)	8 (≈ 31.2 µM)	64 (≈ 250 µM)	16 (≈ 62.4 µM)
Oc1ccc(C2CC(c3ccccc3O)=NN2)cc1 (stereo not given)	64 (≈ 252 µM)	32 (≈ 126 µM)	> 256	128 (≈ 503 µM)
COc1ccc(C2CC(c3ccccc3O)=NN2C(N)=S)cc1 (stereo not given)	> 256	128 (≈ 391 µM)	> 256	64 (≈ 195 µM)
CC(=O)N1N=C(c2ccccc2O)CC1c1cccc(F)c1 (stereo not given)	128 (≈ 429 µM)	128 (≈ 429 µM)	256 (≈ 858 µM)	64 (≈ 215 µM)
CC(=O)N1N=C(c2ccccc2O)CC1c1ccccc1O (stereo not given)	> 256	> 256	256 (≈ 864 µM)	> 256
Oc1ccccc1C1=NNC(c2cccc(F)c2)C1 (stereo not given)	64 (≈ 250 µM)	16 (≈ 62.4 µM)	256 (≈ 999 µM)	64 (≈ 250 µM)
Oc1ccccc1C1=NNC(c2ccccc2)C1 (stereo not given)	128 (≈ 537 µM)	64 (≈ 269 µM)	128 (≈ 537 µM)	32 (≈ 134 µM)
COc1ccccc1C1CC(c2ccccc2O)=NN1C(N)=S (stereo not given)	256 (≈ 782 µM)	256 (≈ 782 µM)	16 (≈ 48.9 µM)	16 (≈ 48.9 µM)
Cc1ccccc1C1CC(c2ccccc2O)=NN1 (stereo not given)	128 (≈ 507 µM)	16 (≈ 63.4 µM)	64 (≈ 254 µM)	16 (≈ 63.4 µM)
Cc1ccc(C2CC(c3ccccc3O)=NN2C(N)=S)cc1 (stereo not given)	> 256	128 (≈ 411 µM)	8 (≈ 25.7 µM)	8 (≈ 25.7 µM)
CC(=O)N1N=C(c2ccccc2O)CC1c1ccc(Br)cc1 (stereo not given)	> 256	> 256	> 256	> 256
NC(=S)N1N=C(c2ccccc2O)CC1c1ccccc1O (stereo not given)	256 (≈ 817 µM)	64 (≈ 204 µM)	256 (≈ 817 µM)	256 (≈ 817 µM)
COc1cccc(C2CC(c3ccccc3O)=NN2C(N)=S)c1 (stereo not given)	256 (≈ 782 µM)	> 256	64 (≈ 195 µM)	32 (≈ 97.7 µM)
NC(=S)N1N=C(c2ccccc2O)CC1c1ccc(Cl)cc1 (stereo not given)	256 (≈ 771 µM)	128 (≈ 386 µM)	8 (≈ 24.1 µM)	4 (≈ 12.1 µM)
NC(=S)N1N=C(c2ccccc2O)CC1c1cccc(Cl)c1 (stereo not given)	256 (≈ 771 µM)	256 (≈ 771 µM)	32 (≈ 96.4 µM)	16 (≈ 48.2 µM)
NC(=S)N1N=C(c2ccccc2O)CC1c1cccc(O)c1 (stereo not given)	256 (≈ 817 µM)	128 (≈ 408 µM)	128 (≈ 408 µM)	16 (≈ 51.1 µM)
COc1ccc(C2CC(c3ccccc3O)=NN2)cc1 (stereo not given)	128 (≈ 477 µM)	64 (≈ 239 µM)	128 (≈ 477 µM)	32 (≈ 119 µM)

From ChEMBL document CHEMBL5046254, “Mycobactin Analogues with Excellent Pharmacokinetic Profile Demonstrate Potent Antitubercular Specific Activity and Exceptional Efflux Pump Inhibition” (J Med Chem, 2022)
